According to patent publication US11981711B2, “Methods of treating spinal cord injury using a chondroitin sulfate proteoglycan (CSPG) reduction peptide (CRP) comprising a cell membrane penetrating domain, a CSPG binding domain, and a lysosome targeting domain” (The Cleveland Clinic Foundation, priority 2017, dated 2024):

How the values were obtained:
[1] = system: chondroitin sulfate proteoglycan (CSPG); experiment: CSPG expression around the spinal cord lesion after contusive SCI, treatment from one day after SCI; assay type: in vivo, rat
Text: (§1) In this Example, the CRP has been applied in a preclinical rat model to test the efficacy of the treatment of spinal cord injury (SCI). The injury was made at thoracic 8 level using contusive injury device. The contusive SCI is the most clinical relevance among all experimental SCI models. We have assessed both motor and bladder control as functional outcomes and analyzed anatomical evidences to support these findings. We also selected sub-acute phase (ONE-DAY after SCI) and chronic phase (TWO-MONTHs after SCI) to start our treatment.
(§2) Furthermore CRP can efficiently improve locomotion and bladder electromyography (EMG) activities and voiding patterns after SCI.

spinal cord injury (SCI) [2] = experiment: Locomotion and gait after T8 contusive SCI, sub-acute CRP treatment; assay type: in vivo, rat
Text: as §1, §2
In particular, FIG. 26A-G show Kinematics assessment in SCI rats. (A) Representative total of hindlimb movement trajectories for spinal-intact, SCI+scrambled peptide (scr) and SCI+CRP groups at 3 months post-SCI. […] N=6 to 8 per group.

spinal cord injury (SCI) [3] = experiment: Bladder function (voiding, CMG, EUS EMG) after T8 contusive SCI, sub-acute CRP treatment; assay type: in vivo, rat
Text: as §1, §2
(A) Representative cystometrograms (CMG) with micturition (voiding) events (indicated by asterisk) for spinal-intact, SCI+scrambled peptide (scr) and SCI+CRP groups at 3 months post-SCI. […] N=6 to 8 per group.
(A) Representative cystometrograms (CMG) with external urethral sphincter (EUS) electromyogram (EMG) recordings at micturition events for spinal-intact, SCI+scrambled peptide (scr) and SCI+CRP groups at 3 months post-SCI. […] The red dot indicates bursting activity. **, P<0.01; ***, P<0.001 when compared to the spinal-intact group; +, P<0.05, ++, P<0.01; +++, P<0.001 when compared to the scr group. N=6 to 8 per group.

[4] = system: serotonin (5-HT) fibers and traced fibers from brain stem and red nuclei; experiment: Axon sprouting below the lesion after SCI, sub-acute CRP treatment; assay type: in vivo, rat
Text: as §2
In particular, 5HT immunoreactivity in lumbosacral level after SCI. […] (G, H) Representative images with double staining of […]

perineuronal nets (PNN) [5] = experiment: Perineuronal nets (WFA staining) in lumbosacral spinal cord after T8 SCI; assay type: in vivo, rat; conditions: 3 months post SCI; vs scrambled peptide
Text: (A, B) Representative L4 spinal cord transverse images show CRP treatment reduces overall PNN in grey matter of lumbar spinal cord neurons at 3 months post SCI. Notice areas with clear decreased WFA staining of the PNN (asterisk). […] (E, F) Representative higher power immunostaining images of the ventral horn of
transverse L4 sections show the strong PNN intensity (arrow) surrounding the NeuN+ cells in scr treated SCI rats (E), while CRP treatment reduces them (F). *, P<0.05 when compared to the scr treatment. N=8 per group.

spinal cord injury (SCI) [6] = experiment: Locomotion (BBB 21-point score) and gait after chronic SCI, treatment from two months after SCI; assay type: in vivo, rat
Text: Basso, Beattie, and Bresnahan (BBB) 21-point scoring test is used as the locomotion assessment after SCI. SCI causes significant deficits on locomotion function as indicated by the significant drop of BBB scores from 21 of the normal rats. […] However, ISP treatment slightly decreases BBB scores from 11.667±0.211 (two months after SCI) to 11.00±0.577 (two months plus 42 days after SCI) (A).
as §1
(§3) The above were followed up with studies to evaluate the treatment effects of CRP in chronic SCI. The chronic SCI is not only way more challenge to be repaired but also is the clinical status of the majority of patients with SCI.

spinal cord injury (SCI) [7] = experiment: Bladder function after chronic SCI, CRP from two months after SCI; assay type: in vivo, rat
Text: as §1, §3
The box area indicates the bursting activity.

5HT fibers = experiment: 5HT fiber sprouting in lumbar cord after chronic SCI; assay type: in vivo, rat; conditions: vs scrambled peptide
perineuronal nets (PNN) [8] = experiment: PNN (WFA) in lumbar cord after chronic SCI; assay type: in vivo, rat
sciatic nerve injury = experiment: Gait after complete sciatic nerve transection with peripheral nerve allograft, CRP treatment; assay type: in vivo; conditions: 3 months after complete sciatic nerve transection, subcutaneous once per day, vs vehicle
Text: The representative 2D trajectory and improved kinematics parameters indicated CRP treated animals improved the stepping more toward to what the uninjured limb did, while compared to the vehicle treated animals. The CRP was delivered through subcutaneous injection near the injured site (once per day) staring immediately after surgery for 3 months.

Neu7-produced CSPGs = experiment: Reduction of CSPG produced by Neu7 cells; assay type: cell-based
[9] = 3 months post-SCI, T8 SCI, vs scrambled peptide
[10] = 5 months post SCI vs two months post SCI (beginning of treatment)

For “YGRKKRRQRRR-PKPRVTWNKKGKKVNSQRF-KFERQKILDQRFFE (NYGRKKRRQRRRPKPRVTWNKKGKKVNSQRFKFERQKILDQRFFEC) [CRP]”, the CSPG ([1]; three months after SCI, sub-acute treatment) was “significantly decreased CSPG”, the “CSPG in lesion epicenter and adjacent tissue” value ([1]; two weeks after contusive SCI, treatment starting one day after SCI, vs vehicle) was “significantly decreases SCI-induced increases in CSPG” and the “gait pattern parameters (kinematics, hindlimb trajectories)” value (spinal cord injury (SCI) [2]; 3 months post-SCI, vs scrambled peptide) was “significantly improved several parameters of gait pattern”. For the same substance, the motor function recovery (spinal cord injury (SCI) [2]; out to 91 days post-contusion, sub-acute treatment) was “significantly promotes motor function recovery”, the “EUS bursting activity (EUS EMG during the void)” value (spinal cord injury (SCI) [3]; [9]) was “improves EUS bursting activity” and the “bladder capacity (CMG)” value (spinal cord injury (SCI) [3]; [9]) was “smaller bladder capacity”. For the same substance, the “hyperactive bladder (CMG)” value (spinal cord injury (SCI) [3]; [9]) was “reduces hyperactive bladder”, the “voiding pressure (CMG)” value (spinal cord injury (SCI) [3]; [9]) was “lower voiding pressure” and the “number and amplitude of non-voiding contraction (overactive bladder)” value (spinal cord injury (SCI) [3]; after SCI, sub-acute treatment) was “reduction of both the number and amplitude of non-voiding contraction”. For the same substance, the “residual volume and volume per void” value (spinal cord injury (SCI) [3]; after SCI, sub-acute treatment) was “reducing residual volume and volume per void toward normal condition”, the voiding patterns (spinal cord injury (SCI) [3]; after SCI, sub-acute treatment) was “improves voiding patterns” and the “external urethral sphincter (EUS) activity: number of burst, EMG amplitude, coordination with detrusor contraction” value (spinal cord injury (SCI) [3]; during the void period, sub-acute treatment) was “improving external urethral sphincter (EUS) activity”. The “nerve sprouting below lesion from neuron in brain stem and red nucleic” value ([4]; after SCI, sub-acute treatment) was “enhances nerve sprouting below lesion”, the “sprouting of serotonin (5-HT) fibers below lesion” value ([4]; after SCI, sub-acute treatment) was “enhances sprouting of serotonin (5-HT) fibers” and the “immunoreactivity of 5HT fibers at L4 and L6/S1 levels” value ([4]; severe contusive SCI, vs scrambled peptide) was “significantly increases immunoreactivity of 5HT fibers”. The “PNN at L4 and L6/S1 levels” value (perineuronal nets (PNN) [5]) was “significant reduction of PNN”, the BBB locomotion scale (spinal cord injury (SCI) [6]; [10]) was “significant increases in BBB locomotion scale” and the “stepping kinematic of both hindlimbs (2D trajectory patterns)” value (spinal cord injury (SCI) [6]; [10]) was “improved stepping kinematic of both hindlimbs”. The “average increases in BBB scores” value (spinal cord injury (SCI) [6]; by two months plus 42 days after SCI, treatment starting two months after SCI) was 3.0±0.365, the BBB score (spinal cord injury (SCI) [6]; two months after SCI (start of treatment)) was 11.75±0.164 and the BBB score (spinal cord injury (SCI) [6]; two months plus 42 days after SCI, treatment starting two months after contusive SCI) was 14.33±0.211. For the same substance, the “hyperactive bladder (CMG)” value (spinal cord injury (SCI) [7]; 3 months of treatment starting at 2 months post SCI) was “reduce hyperactive bladder”, the “EUS bursting activity during the void period” value (spinal cord injury (SCI) [7]; chronic SCI, vs scrambled peptide) was “improve EUS bursting activity” and the voiding patterns (spinal cord injury (SCI) [7]; subcutaneous injection beginning two-month after SCI) was “significantly improves”. The “5HT+ nerve fibers sprouting in lumbosacral level” value (5HT fibers) was “enhance 5HT+ nerve fibers sprouting”, the “PNN (WFA+) in lumbar cord” value (perineuronal nets (PNN) [8]) was “robustly decreased PNN” and the “stepping performance of hindlimbs” value (sciatic nerve injury) was “improved the stepping performance of hindlimbs”. For the same substance, the “dosage dependence of CSPG reduction” value (Neu7-produced CSPGs; Neu7 cells) was “dosage response” and the “CSPG produced by Neu7 cells” value (Neu7-produced CSPGs; compared with ChABC) was “significantly reduces CSPG produced by Neu7 cells”.
